Experimental data as given in patent US6727244B2, “Mammalian metabolites of a tachykinin receptor antagonist” (Merck & Co., Inc., priority 2000, dated 2004).

Test: metabolism in primary cultures of rat hepatocytes
Assay type: in vitro ADME
Settings: after 6 hr
Method: Hepatocytes were harvested from male Sprague-Dawley rat livers or human livers and cultured on a matrigel support and treated with 0.1 μM dexamethasone or 50 μM rifampicin, respectively, for 48 hr prior to the addition of the test compounds. A 2.5 mM stock solution of [^14C]2-(R)-(1-(R)-(3,5-bis(trifluoromethyl)-phenyl)ethoxy)-3-(S)-(4-fluoro)phenyl-4-(3-(5-oxo-1H,4H-1,2,4-triazolo)methylmorpholine, [^14C]M-1 or [^14C]M-2 in DMSO was added to the plates such that the final concentration of test compound was 25 μM and DMSO was 1% (v/v). The cultures were incubated for 4, 6 or 24 hr for rat hepatocytes and 48 hr for human hepatocytes. The incubation mixtures (500 μL) contained 10 μM of test compound, 100 mM phosphate buffer pH 7.4, NADPH-regenerating system, microsomes containing expressed CYP isoforms (CYP1A2, CYP2A6, CYP2B6, CYP2C8, CYP2C9, CYP2C19, CYP2D6, CYP2E1 or CYP3A4) and cytochrome P-450 reductase. The reactions were initiated by adding NADP and proceeded at 37° C. for 15-45 min. […]
Method A was conducted on a Shimadzu HPLC system (Shimadzu Scientific Instruments Inc., Columbia Md.). The parent compounds and their metabolites were monitored directly using a radiometric detector (INUS Systems Inc. Tampa, Fla.) and Ultima-Flow M (Packard Instrument Co., Meridan Conn.) as scintillant at a flow rate of 3 mL/min. […]

For `C[C@@H](O[C@H]1OCCN[C@H]1c1ccc(F)cc1)c1cc(C(F)(F)F)cc(C(F)(F)F)c1` [Metabolite M-1, (2R,3S)-2-[(1R)-1-[3,5-bis(trifluoromethyl)phenyl]ethoxy]-3-(4-fluorophenyl)morpholine], which “metabolism in rat hepatocyte cultures” value is on record?
Its value is “extensively metabolized”.
